From ChEMBL document CHEMBL1201862, “PubChem BioAssay data set” (2004)
Activity calls are given as the source filed them.

Tests used:
[1] = test system: Escherichia coli; assay: microbe, parasite or virus in culture
[2] = molecular target: Exodeoxyribonuclease V (Escherichia coli (strain K12), UniProt P04993+P07648+P08394); assay: RecBCD inhibition via phage-restricted bacterial growth – absorbance, V66 E. coli, mutant T4 phage, counter-screen for AddAB inhibitor project, dose response (AID 492957); format: functional, cell-based, Escherichia coli str. K-12 substr. MG1655
[3] = Counterscreen for AddAB inhibitors: absorbance-based bacterial cell-based high throughput dose response assay for inhibitors of bacterial viability. [Related pubchem assays (depositor defined):AID435030, AID449728, AID449731, AID488942, AID488955, AID488956]; format: functional
[4] = Luminescence Cell-Based Dose Retest to Confirm Inhibitors of Cancer Stem Cells. [Related pubchem assays (depositor defined):AID2717, AID2721]; format: functional, Homo sapiens; conditions: Homo sapiens
[5] = viability loss of HMLE_sh_eGFP cells – cell-based, luminescence, counter-screen for HMLE_sh_ECad selective toxicity project, dose response (AID 463074); format: functional, Homo sapiens;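 further: HMLE human mammary epithelial cells expressing control shRNA against eGFP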
[6] = test system: INS1; assay: INS-1E survival protection against cytokine death – cell-based, luminescence, retest, dose response (AID 449756); format: functional; conditions: Rattus norvegicus;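 further: cell death triggered by IL-1 beta plus TNF-alpha plus IFN-gamma mixture; protective hits raise ATP signal compared with cytokine alone wells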
[7] = molecular target: Fructose-bisphosphate aldolase (Mycobacterium tuberculosis, UniProt P9WQA3); assay: Fluorescence-based biochemical high throughput dose response assay for inhibitors of the fructose-bisphosphate aldolase (FBA) of M. tuberculosis.; format: functional
[8] = test system: Escherichia coli; assay: microbe, parasite or virus in culture; remark: listed apart in the source
[9] = molecular target: T1, Tyrosine-protein phosphatase non-receptor type 7 (Homo sapiens, UniProt P35236); format: functional
T1 sequence (P35236 whole entry): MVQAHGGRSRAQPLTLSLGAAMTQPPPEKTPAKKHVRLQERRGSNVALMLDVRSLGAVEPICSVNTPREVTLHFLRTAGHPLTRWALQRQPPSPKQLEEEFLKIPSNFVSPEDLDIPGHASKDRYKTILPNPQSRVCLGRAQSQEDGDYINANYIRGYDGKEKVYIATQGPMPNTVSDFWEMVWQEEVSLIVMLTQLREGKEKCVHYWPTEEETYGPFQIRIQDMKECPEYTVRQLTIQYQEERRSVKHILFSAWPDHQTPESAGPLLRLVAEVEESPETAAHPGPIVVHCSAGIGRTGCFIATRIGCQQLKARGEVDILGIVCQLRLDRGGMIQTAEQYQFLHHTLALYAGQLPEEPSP

[10] = molecular target: T2, Tyrosine-protein phosphatase non-receptor type 22 (Homo sapiens, UniProt Q9Y2R2); format: functional
T2 sequence (Q9Y2R2 whole entry): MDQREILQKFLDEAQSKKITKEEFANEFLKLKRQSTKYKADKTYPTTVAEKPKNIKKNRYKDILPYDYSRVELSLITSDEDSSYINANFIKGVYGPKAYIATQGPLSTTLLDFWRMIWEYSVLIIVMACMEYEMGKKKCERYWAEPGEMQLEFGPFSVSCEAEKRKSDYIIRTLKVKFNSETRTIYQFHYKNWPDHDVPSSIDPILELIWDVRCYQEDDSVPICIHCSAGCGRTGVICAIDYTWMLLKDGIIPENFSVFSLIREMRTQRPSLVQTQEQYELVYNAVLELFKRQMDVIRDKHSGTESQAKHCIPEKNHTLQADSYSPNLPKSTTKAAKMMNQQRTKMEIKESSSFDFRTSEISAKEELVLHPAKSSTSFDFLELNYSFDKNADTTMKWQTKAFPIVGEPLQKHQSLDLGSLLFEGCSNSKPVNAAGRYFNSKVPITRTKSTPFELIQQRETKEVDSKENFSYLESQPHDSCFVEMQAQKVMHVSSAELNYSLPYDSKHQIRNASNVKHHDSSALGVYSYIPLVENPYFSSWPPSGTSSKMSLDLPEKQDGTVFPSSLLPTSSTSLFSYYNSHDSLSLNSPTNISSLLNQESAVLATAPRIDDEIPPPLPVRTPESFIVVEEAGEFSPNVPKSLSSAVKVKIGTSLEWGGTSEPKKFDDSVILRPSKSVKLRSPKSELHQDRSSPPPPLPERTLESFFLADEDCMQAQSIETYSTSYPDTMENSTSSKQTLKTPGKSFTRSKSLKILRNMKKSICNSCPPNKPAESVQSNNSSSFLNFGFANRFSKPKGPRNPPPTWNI

[11] = molecular target: T2, Tyrosine-protein phosphatase non-receptor type 22; format: functional; remark: listed apart in the source
[12] = viability inhibitors of stage V gametocytes – luminescence, dose response (AID 1117278); format: functional, cell-based;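 further: gametocytes exposed to compound for 24 hours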
[13] = viability loss in human Jurkat cells – cell-based, luminescence, cytotoxicity control for P. falciparum gametocyte viability project, dose response (AID 1117277); format: functional;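 further: potency reflects loss of cellular ATP meaning fewer viable cells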
[14] = molecular target: Peroxisome proliferator-activated receptor gamma/Nuclear receptor coactivator 1 (Homo sapiens, UniProt P37231); assay: (§1) TR-FRET dose response biochemical High Throughput Screening assay for agonists of the steroid receptor coactivator 1 (SRC-1) recruitment by the peroxisome proliferator-activated receptor gamma (PPAR gamma): non-selective agonists. [Related pubchem assays (depositor defined):AID1300, AID1808, AID504735, AID631]; format: protein assay
[15] = molecular target: Peroxisome proliferator-activated receptor gamma/Nuclear receptor coactivator 3 (Homo sapiens, UniProt P37231); assay: as §1, with “3 (SRC-3)” for “1 (SRC-1)”, “assays: 1301 (Confirmation screen.), 1048 (Primary screen.)]” for “assays (depositor defined):AID1300, AID1808, AID504735, AID631]”; format: functional
[16] = molecular target: Peroxisome proliferator-activated receptor gamma/Nuclear receptor coactivator 2 (Homo sapiens, UniProt P37231); assay: TR-FRET dose response biochemical High Throughput Screening assay for agonists of the steroid receptor coactivator 2 (SRC-2) recruitment by the peroxisome proliferator-activated receptor gamma (PPAR gamma): non-selective agonists. [Related pubchem assays: 1297, 1032 ]; format: functional
Sequence of Peroxisome proliferator-activated receptor gamma/Nuclear receptor coactivator 2 (P37231 whole entry): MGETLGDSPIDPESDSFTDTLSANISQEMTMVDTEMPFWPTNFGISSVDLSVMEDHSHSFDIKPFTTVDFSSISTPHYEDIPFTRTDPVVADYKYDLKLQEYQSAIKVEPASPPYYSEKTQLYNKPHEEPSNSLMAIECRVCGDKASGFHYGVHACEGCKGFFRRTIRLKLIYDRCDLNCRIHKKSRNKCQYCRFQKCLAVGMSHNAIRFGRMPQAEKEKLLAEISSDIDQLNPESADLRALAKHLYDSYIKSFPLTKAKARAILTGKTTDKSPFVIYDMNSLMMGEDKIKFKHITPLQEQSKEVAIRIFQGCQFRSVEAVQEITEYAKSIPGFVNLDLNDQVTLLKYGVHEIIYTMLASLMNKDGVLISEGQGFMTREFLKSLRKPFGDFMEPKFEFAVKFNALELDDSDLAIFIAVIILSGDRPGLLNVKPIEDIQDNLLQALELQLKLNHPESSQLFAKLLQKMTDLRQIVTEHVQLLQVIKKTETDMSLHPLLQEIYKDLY
Sequence of Peroxisome proliferator-activated receptor gamma/Nuclear receptor coactivator 2 (Q15596 whole entry, further chain): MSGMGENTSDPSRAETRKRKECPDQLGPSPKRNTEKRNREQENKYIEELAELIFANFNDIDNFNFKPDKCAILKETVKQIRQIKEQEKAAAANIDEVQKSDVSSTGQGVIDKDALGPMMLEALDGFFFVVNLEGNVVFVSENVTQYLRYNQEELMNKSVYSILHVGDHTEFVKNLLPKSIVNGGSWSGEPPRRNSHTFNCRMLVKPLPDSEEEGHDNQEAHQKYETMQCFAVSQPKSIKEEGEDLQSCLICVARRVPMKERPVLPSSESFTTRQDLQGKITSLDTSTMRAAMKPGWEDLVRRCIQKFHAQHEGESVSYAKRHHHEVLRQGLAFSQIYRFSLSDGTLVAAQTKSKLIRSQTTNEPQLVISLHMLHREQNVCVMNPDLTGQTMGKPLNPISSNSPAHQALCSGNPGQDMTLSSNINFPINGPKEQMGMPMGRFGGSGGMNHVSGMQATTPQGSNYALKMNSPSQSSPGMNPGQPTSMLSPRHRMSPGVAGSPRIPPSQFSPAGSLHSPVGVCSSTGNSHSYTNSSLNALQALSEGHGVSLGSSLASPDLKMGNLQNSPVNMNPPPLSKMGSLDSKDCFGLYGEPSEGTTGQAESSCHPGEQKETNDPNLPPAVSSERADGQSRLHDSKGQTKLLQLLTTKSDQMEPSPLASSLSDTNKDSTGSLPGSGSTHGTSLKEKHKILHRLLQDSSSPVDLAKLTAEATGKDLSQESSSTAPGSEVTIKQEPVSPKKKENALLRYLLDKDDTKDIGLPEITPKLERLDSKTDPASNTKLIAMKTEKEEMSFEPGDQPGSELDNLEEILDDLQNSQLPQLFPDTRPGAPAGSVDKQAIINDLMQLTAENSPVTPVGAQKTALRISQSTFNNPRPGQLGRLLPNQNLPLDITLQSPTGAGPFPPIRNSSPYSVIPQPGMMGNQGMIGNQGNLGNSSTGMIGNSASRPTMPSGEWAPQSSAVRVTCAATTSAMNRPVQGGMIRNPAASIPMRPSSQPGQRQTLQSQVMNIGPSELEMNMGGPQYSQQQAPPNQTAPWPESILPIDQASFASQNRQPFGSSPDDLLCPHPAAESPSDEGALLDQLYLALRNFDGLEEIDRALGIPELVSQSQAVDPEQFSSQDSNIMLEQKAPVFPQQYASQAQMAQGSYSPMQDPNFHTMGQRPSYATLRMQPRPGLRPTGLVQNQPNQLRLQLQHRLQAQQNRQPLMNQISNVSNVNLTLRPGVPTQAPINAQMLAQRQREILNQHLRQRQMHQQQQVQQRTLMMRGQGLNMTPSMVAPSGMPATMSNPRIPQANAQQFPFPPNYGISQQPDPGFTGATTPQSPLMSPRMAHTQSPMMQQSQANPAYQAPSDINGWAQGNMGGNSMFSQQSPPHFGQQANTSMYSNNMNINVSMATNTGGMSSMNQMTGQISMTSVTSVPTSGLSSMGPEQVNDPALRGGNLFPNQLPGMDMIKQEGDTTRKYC

Sequence of Peroxisome proliferator-activated receptor gamma/Nuclear receptor coactivator 1 (P37231 whole entry): as the sequence (P37231 whole entry) above
Sequence of Peroxisome proliferator-activated receptor gamma/Nuclear receptor coactivator 1 (Q15788 whole entry, further chain): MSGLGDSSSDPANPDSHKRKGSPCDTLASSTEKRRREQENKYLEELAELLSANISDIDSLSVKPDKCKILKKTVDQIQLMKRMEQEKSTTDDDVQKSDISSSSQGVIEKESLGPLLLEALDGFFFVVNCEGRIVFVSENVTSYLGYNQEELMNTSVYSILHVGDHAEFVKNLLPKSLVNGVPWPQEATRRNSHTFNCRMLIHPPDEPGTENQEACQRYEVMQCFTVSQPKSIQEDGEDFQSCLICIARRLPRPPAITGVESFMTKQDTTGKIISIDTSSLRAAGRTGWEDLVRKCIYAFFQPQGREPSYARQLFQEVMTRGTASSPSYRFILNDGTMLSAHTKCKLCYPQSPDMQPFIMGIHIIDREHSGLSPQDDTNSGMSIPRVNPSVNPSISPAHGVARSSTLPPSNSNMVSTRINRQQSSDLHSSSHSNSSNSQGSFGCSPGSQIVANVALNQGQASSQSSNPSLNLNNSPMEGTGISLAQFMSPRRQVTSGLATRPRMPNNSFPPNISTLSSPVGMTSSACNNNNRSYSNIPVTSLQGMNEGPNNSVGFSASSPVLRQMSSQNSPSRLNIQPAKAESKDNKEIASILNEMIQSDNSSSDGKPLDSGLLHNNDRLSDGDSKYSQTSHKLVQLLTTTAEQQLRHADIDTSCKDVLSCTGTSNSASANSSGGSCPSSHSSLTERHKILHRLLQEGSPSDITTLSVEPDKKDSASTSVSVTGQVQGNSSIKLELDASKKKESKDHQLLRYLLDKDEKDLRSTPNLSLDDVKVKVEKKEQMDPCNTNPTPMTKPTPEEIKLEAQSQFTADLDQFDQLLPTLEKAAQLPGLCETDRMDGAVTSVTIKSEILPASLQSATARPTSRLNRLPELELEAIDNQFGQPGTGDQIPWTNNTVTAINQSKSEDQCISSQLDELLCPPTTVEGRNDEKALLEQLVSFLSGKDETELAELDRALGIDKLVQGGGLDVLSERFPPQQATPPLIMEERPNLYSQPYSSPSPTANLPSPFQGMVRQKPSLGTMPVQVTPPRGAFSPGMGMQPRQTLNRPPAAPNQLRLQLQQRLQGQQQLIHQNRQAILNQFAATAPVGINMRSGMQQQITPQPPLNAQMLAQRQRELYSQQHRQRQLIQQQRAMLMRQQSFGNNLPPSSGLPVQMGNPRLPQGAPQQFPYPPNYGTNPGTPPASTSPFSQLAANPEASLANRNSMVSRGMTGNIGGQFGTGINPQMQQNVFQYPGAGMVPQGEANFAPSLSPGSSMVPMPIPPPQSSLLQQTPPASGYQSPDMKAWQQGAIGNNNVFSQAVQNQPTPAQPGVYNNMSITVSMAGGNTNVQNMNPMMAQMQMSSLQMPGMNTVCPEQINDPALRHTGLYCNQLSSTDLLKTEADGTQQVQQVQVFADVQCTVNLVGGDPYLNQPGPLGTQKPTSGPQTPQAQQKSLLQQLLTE
Sequence of Fructose-bisphosphate aldolase (P9WQA3 whole entry): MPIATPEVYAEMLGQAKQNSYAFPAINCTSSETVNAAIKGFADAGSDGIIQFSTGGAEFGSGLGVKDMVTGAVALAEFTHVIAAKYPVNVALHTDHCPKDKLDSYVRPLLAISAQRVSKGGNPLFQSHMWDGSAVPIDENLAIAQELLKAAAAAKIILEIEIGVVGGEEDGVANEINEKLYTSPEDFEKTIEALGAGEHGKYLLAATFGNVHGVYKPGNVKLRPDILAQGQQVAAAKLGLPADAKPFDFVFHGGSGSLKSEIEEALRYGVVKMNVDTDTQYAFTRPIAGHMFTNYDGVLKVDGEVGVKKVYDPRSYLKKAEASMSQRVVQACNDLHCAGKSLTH

O=C(O)CN1C(=O)CC(Cc2ccc(Cl)cc2)C1=O (stereo unspecified)
AC50 [1]: 106 µM (active)

O=C(OCC(=O)c1cccs1)c1ccc([N+](=O)[O-])o1
IC50 [2]: > 119 µM (inactive)
IC50 [3]: 92.6 µM (inactive)

Cc1ccc2nc(-c3ccc(-c4cccc(Cl)c4)cc3)c(NCc3ccccc3)n2c1
AC50 [4]: 4.96 µM (active)
AC50 [5]: 24 µM (active)
AC50 [6]: 2.29 µM (active)
IC50 [7]: 0.848 µM (active)

C[C@H](NS(=O)(=O)c1ccc(Cl)c(Cl)c1)C(=O)OCc1cc(=O)n2cc(Br)ccc2n1
AC50 [8]: 67.4 µM (active)

COc1ccc(C(C#N)(CCC#N)CCC#N)cc1OC
IC50 [9]: > 79.4 µM (inactive)
IC50 [10]: > 79.4 µM (inactive)
IC50 [11]: > 79.4 µM (inactive)
IC50 [12]: > 109 µM (inactive)
IC50 [13]: > 83.3 µM (inactive)

Cn1c(=O)cc(SCC(=O)N2CCCC2)c2ccc(Cl)cc21
EC50 [14]: > 79.4 µM (inactive)
EC50 [15]: > 79.4 µM (not active)
EC50 [16]: > 79.4 µM (not active)
